Measured values: patent US9539252B2, “Piperazine-substituted benzothiophene derivatives as antipsychotic agents” (OTSUKA PHARMACEUTICAL CO., LTD., priority 2011, dated 2017)

Test: Solubility in oil (sesame oil, benzyl benzoate), visual observation
Settings: benzyl benzoate, oil or lipid, thermodynamic from solid

solubility, > 100 mg/mL:
CCCCCCCCCCCCCCCC(=O)OCn1c(=O)ccc2ccc(OCCCCN3CCN(c4cccc5sccc45)CC3)cc21 [Example 42, hexadecanoic acid 7-[4-(4-benzo[b]thiophen-4-ylpiperazin-1-yl)butoxy]-2-oxo-2H-quinolin-1-ylmethyl ester]
CCCCCCCCCCCCCCCNC(=O)OCn1c(=O)ccc2ccc(OCCCCN3CCN(c4cccc5sccc45)CC3)cc21 [Example 43, N-pentadecylcarbamic acid 7-[4-(4-benzo[b]thiophen-4-ylpiperazin-1-yl)butoxy]-2-oxo-2H-quinolin-1-ylmethyl ester]
CCCCCCCCCCCCCCCCCCN(C)C(=O)OCn1c(=O)ccc2ccc(OCCCCN3CCN(c4cccc5sccc45)CC3)cc21 [Example 44, N-methyl-N-octadecylcarbamic acid 7-[4-(4-benzo[b]thiophen-4-ylpiperazin-1-yl)butoxy]-2-oxo-2H-quinolin-1-ylmethyl ester]
CCCCN(CCCC)C(=O)OCn1c(=O)ccc2ccc(OCCCCN3CCN(c4cccc5sccc45)CC3)cc21 [Example 45, N,N-dibutylcarbamic acid 7-[4-(4-benzo[b]thiophen-4-ylpiperazin-1-yl)butoxy]-2-oxo-2H-quinolin-1-ylmethyl ester]
CNC(=O)OCN1C(=O)CCc2ccc(OCCCCN3CCN(c4cccc5sccc45)CC3)cc21 [Example 46, N-methylcarbamic acid 7-[4-(4-benzo[b]thiophen-4-ylpiperazin-1-yl)butoxy]-2-oxo-3,4-dihydro-2H-quinolin-1-ylmethyl ester]
CN(C)C(=O)OCN1C(=O)CCc2ccc(OCCCCN3CCN(c4cccc5sccc45)CC3)cc21 [Example 47, N,N-dimethylcarbamic acid 7-[4-(4-benzo[b]thiophen-4-ylpiperazin-1-yl)butoxy]-2-oxo-3,4-dihydro-2H-quinolin-1-ylmethyl ester]
CCCCCCCCCCCCCCCCCC(=O)OCN1C(=O)CCc2ccc(OCCCCN3CCN(c4cccc5sccc45)CC3)cc21 [Example 48, octadecanoic acid 7-[4-(4-benzo[b]thiophen-4-ylpiperazin-1-yl)butoxy]-2-oxo-3,4-dihydro-2H-quinolin-1-ylmethyl ester]
CCOC(=O)OCN1C(=O)CCc2ccc(OCCCCN3CCN(c4cccc5sccc45)CC3)cc21 [Example 49, carbonic acid 7-[4-(4-benzo[b]thiophen-4-ylpiperazin-1-yl)butoxy]-2-oxo-3,4-dihydro-2H-quinolin-1-ylmethyl ester ethyl ester]
CCOC(=O)OCn1c(=O)ccc2ccc(OCCCCN3CCN(c4cccc5sccc45)CC3)cc21 [Example 50, carbonic acid 7-[4-(4-benzo[b]thiophen-4-ylpiperazin-1-yl)butoxy]-2-oxo-2H-quinolin-1-ylmethyl ester ethyl ester]
CCNC(=O)OCN1C(=O)CCc2ccc(OCCCCN3CCN(c4cccc5sccc45)CC3)cc21 [Example 51, N-ethylcarbamic acid 7-[4-(4-benzo[b]thiophen-4-ylpiperazin-1-yl)butoxy]-2-oxo-3,4-dihydro-2H-quinolin-1-ylmethyl ester]
CCN(CC)C(=O)OCN1C(=O)CCc2ccc(OCCCCN3CCN(c4cccc5sccc45)CC3)cc21 [Example 52, N,N-diethylcarbamic acid 7-[4-(4-benzo[b]thiophen-4-ylpiperazin-1-yl)butoxy]-2-oxo-3,4-dihydro-2H-quinolin-1-ylmethyl ester]
CNC(=O)OCn1c(=O)ccc2ccc(OCCCCN3CCN(c4cccc5sccc45)CC3)cc21 [Example 53, N-methylcarbamic acid 7-[4-(4-benzo[b]thiophen-4-ylpiperazin-1-yl)butoxy]-2-oxo-2H-quinolin-1-ylmethyl ester]
CCCCCC(CCCCC)C(=O)OCn1c(=O)ccc2ccc(OCCCCN3CCN(c4cccc5sccc45)CC3)cc21 [Example 54, 2-pentylheptanoic acid 7-[4-(4-benzo[b]thiophen-4-ylpiperazin-1-yl)butoxy]-2-oxo-2H-quinolin-1-ylmethyl ester]
CCNC(=O)OCn1c(=O)ccc2ccc(OCCCCN3CCN(c4cccc5sccc45)CC3)cc21 [Example 55, N-ethylcarbamic acid 7-[4-(4-benzo[b]thiophen-4-ylpiperazin-1-yl)butoxy]-2-oxo-2H-quinolin-1-ylmethyl ester]
CN(C)C(=O)OCn1c(=O)ccc2ccc(OCCCCN3CCN(c4cccc5sccc45)CC3)cc21 [Example 56, N,N-dimethylcarbamic acid 7-[4-(4-benzo[b]thiophen-4-ylpiperazin-1-yl)butoxy]-2-oxo-2H-quinolin-1-ylmethyl ester]
CCN(CC)C(=O)OCn1c(=O)ccc2ccc(OCCCCN3CCN(c4cccc5sccc45)CC3)cc21 [Example 57, N,N-diethylcarbamic acid 7-[4-(4-benzo[b]thiophen-4-ylpiperazin-1-yl)butoxy]-2-oxo-2H-quinolin-1-ylmethyl ester]
CCCCCC(=O)OCn1c(=O)ccc2ccc(OCCCCN3CCN(c4cccc5sccc45)CC3)cc21 [Example 58, hexanoic acid 7-[4-(4-benzo[b]thiophen-4-ylpiperazin-1-yl)butoxy]-2-oxo-2H-quinolin-1-ylmethyl ester]
CCCCCCCCCC(=O)OCn1c(=O)ccc2ccc(OCCCCN3CCN(c4cccc5sccc45)CC3)cc21 [Example 59, decanoic acid 7-[4-(4-benzo[b]thiophen-4-ylpiperazin-1-yl)butoxy]-2-oxo-2H-quinolin-1-ylmethyl ester]
CCCCCCCCCCCCCCCCCC(=O)OCn1c(=O)ccc2ccc(OCCCCN3CCN(c4cccc5sccc45)CC3)cc21 [Example 60, octadecanoic acid 7-[4-(4-benzo[b]thiophen-4-ylpiperazin-1-yl)butoxy]-2-oxo-2H-quinolin-1-ylmethyl ester]
CC(=O)OCn1c(=O)ccc2ccc(OCCCCN3CCN(c4cccc5sccc45)CC3)cc21 [Example 61, acetic acid 7-[4-(4-benzo[b]thiophen-4-ylpiperazin-1-yl)butoxy]-2-oxo-2H-quinolin-1-ylmethyl ester]
O=C(NCc1ccccc1)OCn1c(=O)ccc2ccc(OCCCCN3CCN(c4cccc5sccc45)CC3)cc21 [Example 62, N-benzylcarbamic acid 7-[4-(4-benzo[b]thiophen-4-ylpiperazin-1-yl)butoxy]-2-oxo-2H-quinolin-1-ylmethyl ester]
O=C(NCC1CCCCC1)OCn1c(=O)ccc2ccc(OCCCCN3CCN(c4cccc5sccc45)CC3)cc21 [Example 63, N-cyclohexylmethylcarbamic acid 7-[4-(4-benzo[b]thiophen-4-ylpiperazin-1-yl)butoxy]-2-oxo-2H-quinolin-1-ylmethyl ester]
COC(=O)CNC(=O)OCn1c(=O)ccc2ccc(OCCCCN3CCN(c4cccc5sccc45)CC3)cc21 [Example 64, {7-[4-(4-benzo[b]thiophen-4-ylpiperazin-1-yl)butoxy]-2-oxo-2H-quinolin-1-ylmethoxycarbonylamino}acetic acid methyl ester]
CCCCCCCCCCCCCC(=O)OCn1c(=O)ccc2ccc(OCCCCN3CCN(c4cccc5sccc45)CC3)cc21 [Example 65, tetradecanoic acid 7-[4-(4-benzo[b]thiophen-4-ylpiperazin-1-yl)butoxy]-2-oxo-2H-quinolin-1-ylmethyl ester]
O=C(OCn1c(=O)ccc2ccc(OCCCCN3CCN(c4cccc5sccc45)CC3)cc21)N1CCOCC1 [Example 67, morpholine-4-carboxylic acid 7-[4-(4-benzo[b]thiophen-4-ylpiperazin-1-yl)butoxy]-2-oxo-2H-quinolin-1-ylmethyl ester]
CCCCCCCCCC(=O)OCN1C(=O)CCc2ccc(OCCCCN3CCN(c4cccc5sccc45)CC3)cc21 [Example 68, decanoic acid 7-[4-(4-benzo[b]thiophen-4-ylpiperazin-1-yl)butoxy]-2-oxo-3,4-dihydro-2H-quinolin-1-ylmethyl ester]
O=C(NOCc1ccccc1)OCn1c(=O)ccc2ccc(OCCCCN3CCN(c4cccc5sccc45)CC3)cc21 [Example 69, 7-[4-(4-benzo[b]thiophen-4-ylpiperazin-1-yl)butoxy]-2-oxo-2H-quinolin-1-ylmethyl benzyloxycarbamate]
CCCCCC(=O)OCN1C(=O)CCc2ccc(OCCCCN3CCN(c4cccc5sccc45)CC3)cc21 [Example 70, hexanoic acid 7-[4-(4-benzo[b]thiophen-4-ylpiperazin-1-yl)butoxy]-2-oxo-3,4-dihydro-2H-quinolin-1-ylmethyl ester]
O=C(NC1CCCCC1)OCn1c(=O)ccc2ccc(OCCCCN3CCN(c4cccc5sccc45)CC3)cc21 [Example 71, N-cyclohexylcarbamic acid 7-[4-(4-benzo[b]thiophen-4-ylpiperazin-1-yl)butoxy]-2-oxo-2H-quinolin-1-ylmethyl ester]
COC(=O)OCN1C(=O)CCc2ccc(OCCCCN3CCN(c4cccc5sccc45)CC3)cc21 [Example 72, carbonic acid 7-[4-(4-benzo[b]thiophen-4-ylpiperazin-1-yl)butoxy]-2-oxo-3,4-dihydro-2H-quinolin-1-ylmethyl ester methyl ester]
COC(=O)CN(C)C(=O)OCn1c(=O)ccc2ccc(OCCCCN3CCN(c4cccc5sccc45)CC3)cc21 [Example 73, ({7-[4-(4-benzo[b]thiophen-4-ylpiperazin-1-yl)butoxy]-2-oxo-2H-quinolin-1-ylmethoxycarbonyl}methylamino)acetic acid methyl ester]
C=CCCCCCCCCC(=O)OCn1c(=O)ccc2ccc(OCCCCN3CCN(c4cccc5sccc45)CC3)cc21 [Example 74, undec-10-enoic acid 7-[4-(4-benzo[b]thiophen-4-ylpiperazin-1-yl)butoxy]-2-oxo-2H-quinolin-1-ylmethyl ester]

Same assay, conditions: sesame oil, oil or lipid, thermodynamic from solid

solubility, > 100 mg/mL:
CCCCCCCCCCCCCCCCCCN(C)C(=O)OCn1c(=O)ccc2ccc(OCCCCN3CCN(c4cccc5sccc45)CC3)cc21 [Example 44, N-methyl-N-octadecylcarbamic acid 7-[4-(4-benzo[b]thiophen-4-ylpiperazin-1-yl)butoxy]-2-oxo-2H-quinolin-1-ylmethyl ester]
CCCCN(CCCC)C(=O)OCn1c(=O)ccc2ccc(OCCCCN3CCN(c4cccc5sccc45)CC3)cc21 [Example 45, N,N-dibutylcarbamic acid 7-[4-(4-benzo[b]thiophen-4-ylpiperazin-1-yl)butoxy]-2-oxo-2H-quinolin-1-ylmethyl ester]
CCN(CC)C(=O)OCN1C(=O)CCc2ccc(OCCCCN3CCN(c4cccc5sccc45)CC3)cc21 [Example 52, N,N-diethylcarbamic acid 7-[4-(4-benzo[b]thiophen-4-ylpiperazin-1-yl)butoxy]-2-oxo-3,4-dihydro-2H-quinolin-1-ylmethyl ester]
CCN(CC)C(=O)OCn1c(=O)ccc2ccc(OCCCCN3CCN(c4cccc5sccc45)CC3)cc21 [Example 57, N,N-diethylcarbamic acid 7-[4-(4-benzo[b]thiophen-4-ylpiperazin-1-yl)butoxy]-2-oxo-2H-quinolin-1-ylmethyl ester]
CCCCCCCCCCCCCCCCCC(=O)OCn1c(=O)ccc2ccc(OCCCCN3CCN(c4cccc5sccc45)CC3)cc21 [Example 60, octadecanoic acid 7-[4-(4-benzo[b]thiophen-4-ylpiperazin-1-yl)butoxy]-2-oxo-2H-quinolin-1-ylmethyl ester]
